Source: patent US12403118B1, “Cancer treatments using modified fatty acids and the carriers to administer them” (Zetagen Therapeutics, Inc., priority 2025, dated 2025)

Key:
MCF7 breast cancer cells = test: MTT assay of cell proliferation; format: cell-based; conditions: relative to no treatment
Method: The MTT Assay of Cell Proliferation: The MTT assay provides a measurement of cell proliferation (FIG. 5) in the MCF7 breast cancer cells. […] Experiments were conducted using three independent replicates and evaluated using a 1-way ANOVA. Relative to Controls at 24-hours (FIG. 5A), there was between a 6.9% and 11.94% decrease in cell number (**=p<0.0034, ***=p<0.0007, and ****=p<0.0001). Relative to Control cultures at 72-hours (FIG. 5B), there was between a 15.4% and 50.2% decrease in cell number (****=p<0.0001).
Combination Therapy Assessed Using the MTT Assay of Cell Proliferation: The MTT assay provides a measurement of cell proliferation (FIG. 5) in the MCF7 breast cancer cells. […] Control cultures were treated with 50-nM of Tomoxifen or 10-nM of Abemaciclib.

Phosphoglycerate kinase = conditions: substrate Mg-ATP; cited from earlier work
[1] = Solubility in heated non-polar solvents and fatty acid solutions; format: physicochemical; conditions: heated to at least 90° C.; for solubility in fatty acid solutions: oleic acid, linoleic acid, vegetable oil, olive oil, canola oil, castor oil; for solubility in non-polar solvents: toluene, xylene, n-octane, cyclohexane, hexane, chloroform, acetonitrile, ether
TRPA1 channels = TRPA1 channels (Homo sapiens, UniProt O75762); conditions: 20-μM Ca^2+; cited from earlier work
Chain of TRPA1 channels (O75762 whole entry): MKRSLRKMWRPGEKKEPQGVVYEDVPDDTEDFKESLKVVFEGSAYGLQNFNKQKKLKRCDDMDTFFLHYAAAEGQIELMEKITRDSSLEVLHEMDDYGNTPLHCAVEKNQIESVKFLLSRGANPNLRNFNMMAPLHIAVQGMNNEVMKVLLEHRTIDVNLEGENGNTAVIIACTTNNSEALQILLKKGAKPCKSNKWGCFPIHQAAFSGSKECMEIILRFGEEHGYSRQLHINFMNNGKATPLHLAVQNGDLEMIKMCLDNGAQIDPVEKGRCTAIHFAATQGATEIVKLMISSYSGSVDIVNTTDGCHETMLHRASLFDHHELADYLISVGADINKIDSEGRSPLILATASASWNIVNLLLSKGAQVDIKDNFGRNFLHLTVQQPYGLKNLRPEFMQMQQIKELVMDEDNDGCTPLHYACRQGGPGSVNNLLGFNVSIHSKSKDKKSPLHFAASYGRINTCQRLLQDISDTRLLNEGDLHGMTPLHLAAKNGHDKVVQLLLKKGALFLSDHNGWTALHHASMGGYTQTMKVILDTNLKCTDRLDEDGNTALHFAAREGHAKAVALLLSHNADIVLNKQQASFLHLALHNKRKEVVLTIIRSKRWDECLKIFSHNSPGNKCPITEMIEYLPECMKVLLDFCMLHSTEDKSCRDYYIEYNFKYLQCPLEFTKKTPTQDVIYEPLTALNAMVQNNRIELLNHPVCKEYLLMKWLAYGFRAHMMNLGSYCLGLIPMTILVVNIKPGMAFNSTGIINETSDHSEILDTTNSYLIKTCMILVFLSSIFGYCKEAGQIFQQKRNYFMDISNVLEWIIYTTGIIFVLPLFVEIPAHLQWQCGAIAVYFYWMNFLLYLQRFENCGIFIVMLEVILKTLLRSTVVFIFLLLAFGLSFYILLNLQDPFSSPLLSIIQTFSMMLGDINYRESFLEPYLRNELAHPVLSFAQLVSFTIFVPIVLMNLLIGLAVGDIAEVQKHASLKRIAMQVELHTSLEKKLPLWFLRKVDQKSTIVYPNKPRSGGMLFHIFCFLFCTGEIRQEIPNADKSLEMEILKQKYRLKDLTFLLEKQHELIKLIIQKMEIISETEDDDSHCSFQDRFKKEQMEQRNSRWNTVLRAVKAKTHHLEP

## CCN1CCN(Cc2ccc(Nc3ncc(F)c(-c4cc(F)c5nc(C)n(C(C)C)c5c4)n3)nc2)CC1 [Abemaciclib]
MCF7 breast cancer cells; MCF7, 24-hours, 10-nM Abemaciclib
  decrease in cell number: 10.2%
MCF7 breast cancer cells; MCF7, 72-hours, 10-nM Abemaciclib
  decrease in cell number: 26.4%

## Nc1ncnc2c1ncn2[C@@H]1O[C@H](COP(=O)(O)OP(=O)([O-])OP(=O)([O-])O)[C@@H](O)[C@H]1O.[Mg+2] [Mg-ATP]
Phosphoglycerate kinase
  K-value: 0.073 mM

## CC/C(=C(\c1ccccc1)c1ccc(OCCN(C)C)cc1)c1ccccc1 [Tamoxifen]
MCF7 breast cancer cells; MCF7, 24-hours, 50-nM Tamoxifen
  decrease in cell number: 54%
MCF7 breast cancer cells; MCF7, 72-hours, 50-nM Tamoxifen
  decrease in cell number: 80.3%

## CCCCCCCCC(OC(C)=O)C(CCCCCCCC(=O)O)OC(C)=O (stereo not shown) [lanthanum (III) tri 9,10-diacetoxy octadecanoate]
[1]
  solubility in fatty acid solutions: soluble
  solubility in non-polar solvents: soluble

## CCCCCCCCCCCC(=O)O [lanthanum (III) tridodeconoate]
[1]
  solubility in fatty acid solutions: soluble
  solubility in non-polar solvents: soluble

## [La] [lanthanum]
TRPA1 channels
  IC50: 54 µM
